Measured values as given in US20080247962A1, “Pharmaceutical Compositions Comprising Higher Primary Aliphatic Alcohols and Hmg Coa Reductase Inhibitor and Process of Preparation Thereof” (PANACEA BIOTEC LTD., priority 2004, published 2008).

System: Casein-Starch-Induced Hypercholesterolemia in Rabbits
Test: Casein-starch-induced hypercholesterolemia in rabbits (serum lipid profile)
Type: in vivo
Parameters: key to LDL-C level: serum LDL-C in mg/dL, mean±S.E.M
Settings: for serum total cholesterol level / LDL-C level: mean±S.E.M.; for LDL-C level: in mg/dL (unit assumed)
Experimental: Casein-Starch-Induced Hypercholesterolemia in Rabbits
The observed unexpected synergistic lipid lowering effect of combination of Extract-A and atorvastatin is evidenced by the test conducted in rabbits. Rabbits of either sex were procured from Central Animal House facility; Panacea Biotec Ltd., India. Animals weighing 1.5-2.0 Kg at the time of testing were used. All animals were dosed sequentially by the oral route with Extract-A and/or atorvastatin suspended in 0.5% of carboxymethyl cellulose (CMC). A dosing volume of 2 ml/kg was used for each sequential suspension.
The fasting serum lipid profile (TC, TGs, LDL-C, HDL-C) was estimated before initiation of the experiment. […] Hypercholesterolemia was induced by feeding rabbits with wheat casein-starch diet (g/kg) containing wheat flour 333, cellulose 300, casein 270, water 20, maize oil 10, and mineral mixture (Kroon et al., 1982) for 60 days. Feed consumption was restricted to 100 g/day per animal. The cholesterol level was estimated every 15 days. After 60 days animals with total cholesterol level >150 mg/dl were randomized to treatment (n=6/group). Thereafter, various doses of Extract-A and/or atorvastatin were administered for another 60 days during which animals were fed with casein-starch diet. Blood samples were collected from fasted rabbits and analyzed for any alteration in serum lipid profile after 60 days of test compound(s) administration.
All the data are expressed as mean±S.E.M. (Standard Error of Mean). Student t-test was-used to compare the lipid parameters between animals fed with standard and hypercholesterolemic diet. The difference between various drug treated groups was analyzed by ANOVA followed by Dunnett's test. A value of P<0.05 was considered as statistically significant.

[1] = atorvastatin 2.5 mg/kg p.o., day 0, pre-dose
[2] = atorvastatin 2.5 mg/kg p.o., day 15, pre-dose
[3] = atorvastatin 2.5 mg/kg p.o., day 30, pre-dose
[4] = atorvastatin 2.5 mg/kg p.o., day 60, start of dosing
[5] = atorvastatin 2.5 mg/kg p.o., day 75 (dosing from day 60)
[6] = atorvastatin 2.5 mg/kg p.o., day 90 (dosing from day 60)
[7] = atorvastatin 2.5 mg/kg p.o., day 105 (dosing from day 60)
[8] = atorvastatin 2.5 mg/kg p.o., day 120 (dosing from day 60)
[9] = atorvastatin 5 mg/kg p.o., day 0, pre-dose
[10] = atorvastatin 5 mg/kg p.o., day 15, pre-dose
[11] = atorvastatin 5 mg/kg p.o., day 30, pre-dose
[12] = atorvastatin 5 mg/kg p.o., day 60, start of dosing
[13] = atorvastatin 5 mg/kg p.o., day 75 (dosing from day 60)
[14] = atorvastatin 5 mg/kg p.o., day 90 (dosing from day 60)
[15] = atorvastatin 5 mg/kg p.o., day 105 (dosing from day 60)
[16] = atorvastatin 5 mg/kg p.o., day 120 (dosing from day 60)
[17] = single agents: Extract-A 100 and 200 mg/kg p.o., atorvastatin 2.5 and 5 mg/kg p.o.

CC(C)c1c(C(=O)Nc2ccccc2)c(-c2ccccc2)c(-c2ccc(F)cc2)n1CC[C@@H](O)C[C@@H](O)CC(=O)O [At, atorvastatin]
serum total cholesterol level [1]: 56.83 ± 4.84 mg/dL | LDL-C level [1]: 21.4 ± 8.04 | serum total cholesterol level [2]: 96.00 ± 2.08 mg/dL | LDL-C level [2]: 61.03 ± 1.87 | serum total cholesterol level [3]: 144.83 ± 6.6 mg/dL | LDL-C level [3]: 106.6 ± 5.85 | serum total cholesterol level [4]: 204.66 ± 6.58 mg/dL | LDL-C level [4]: 166.07 ± 4.97 | serum total cholesterol level [5]: 202.5 ± 15.15 mg/dL | LDL-C level [5]: 165.53 ± 14.81 | serum total cholesterol level [6]: 205.83 ± 13.31 mg/dL | LDL-C level [6]: 166.47 ± 13.66 | serum total cholesterol level [7]: 201.33 ± 11.49 mg/dL | LDL-C level [7]: 159.3 ± 12.53 | serum total cholesterol level [8]: 201.16 ± 10.4 mg/dL | LDL-C level [8]: 158.00 ± 12.22 | serum total cholesterol level [9]: 68.50 ± 5.99 mg/dL | LDL-C level [9]: 30.33 ± 6.44 | serum total cholesterol level [10]: 101.16 ± 1.88 mg/dL | LDL-C level [10]: 61.83 ± 1.77 | serum total cholesterol level [11]: 142.16 ± 10.37 mg/dL | LDL-C level [11]: 104.17 ± 11.76 | serum total cholesterol level [12]: 226.67 ± 9.74 mg/dL | LDL-C level [12]: 188.67 ± 10.00 | serum total cholesterol level [13]: 213.16 ± 5.69 mg/dL | LDL-C level [13]: 175.07 ± 5.06 | serum total cholesterol level [14]: 201.83 ± 5.81 mg/dL | LDL-C level [14]: 161.3 ± 6.04 | serum total cholesterol level [15]: 198.17 ± 6.65 mg/dL | LDL-C level [15]: 155.17 ± 6.87 | serum total cholesterol level [16]: 195.50 ± 5.31 mg/dL | LDL-C level [16]: 149.1 ± 4.72 | LDL-C in comparison to hypercholesterolemic control rabbits [17]: reversed | TC in comparison to hypercholesterolemic control rabbits [17]: reversed
